Species on record: Rattus norvegicus
Assay: Open TG-GATES - Regimen: Daily Repeat
Format: toxicity, organism-based, Sprague-Dawley
Parameters: regimen Daily Repeat, gender Male, age 6 weeks
Details: in vivo, po, 30 mg/kg, route gavage, dose level Middle; for APTT / Bas / Eos / Fbg / Hb / Ht / Lym / MCH / MCHC / MCV / Mono / Neu / PT / Plat / RBC / Ret / WBC: tissue Blood
[1] = 72 h, tissue Kidney, time 3 day
[2] = 72 h, tissue Plasma, time 3 day

SMILES: CCCc1cc(=O)[nH]c(=S)[nH]1 [PROPYLTHIOURACIL]
- TERMINAL_BW (72 h, time 3 day): 205.6 g
- APTT (72 h, time 3 day): 15.9 s
- Bas (72 h, time 3 day): 0%
- Eos (72 h, time 3 day): 0.4%
- Fbg (72 h, time 3 day): 242.4 mg/dL
- Hb (72 h, time 3 day): 13.6 g/dL
- Ht (72 h, time 3 day): 40.9%
- Lym (72 h, time 3 day): 73%
- MCH (72 h, time 3 day): 21.9 pg
- MCHC (72 h, time 3 day): 33.3%
- MCV (72 h, time 3 day): 65.7 fL
- Mono (72 h, time 3 day): 7.4%
- Neu (72 h, time 3 day): 19.2%
- PT (72 h, time 3 day): 12.2 s
- Plat (72 h, time 3 day): 114 x10_4/uL
- RBC (72 h, time 3 day): 623 x10_4/ul
- Ret (72 h, time 3 day): 6.7%
- WBC (72 h, time 3 day): 122.6 x10_2/uL
- KIDNEY_L [1]: 0.9 g
- KIDNEY_R [1]: 0.9 g
- KIDNEY_TOTAL [1]: 1.8 g
- LIVER (72 h, tissue Liver, time 3 day): 11.4 g
- A/G [2]: 1.8
- ALP [2]: 907.2 IU/L
- ALT [2]: 36 IU/L
- AST [2]: 64 IU/L
- BUN [2]: 18.2 mg/dL
- CRE [2]: 0.5 mg/dL
- Ca [2]: 11.3 mg/dL
- Cl [2]: 106 meq/L
- DBIL [2]: 0.024 mg/dL
- GLC [2]: 192 mg/dL
- IP [2]: 7.6 mg/dL
- K [2]: 4.6 meq/L
- LDH [2]: 150.8 IU/L
- Na [2]: 138.4 meq/L
- PL [2]: 183 mg/dL
- RALB [2]: 3.9 g/dL
- TBIL [2]: 0.3 mg/dL
- TC [2]: 106.4 mg/dL
- TG [2]: 97 mg/dL
- TP [2]: 6 g/dL
- gamma-GTP [2]: 1.2 IU/L
- TERMINAL_BW ([…], time 7 day): 228.6 g
- TERMINAL_BW ([…], time 14 day): 248.6 g
- TERMINAL_BW ([…], time 28 day): 242.7 g
- APTT ([…], time 7 day): 16.2 s
- Bas ([…], time 7 day): 0%
- Eos ([…], time 7 day): 0.2%
- Fbg ([…], time 7 day): 264 mg/dL
- Hb ([…], time 7 day): 13.7 g/dL
- Ht ([…], time 7 day): 40.3%
- Lym ([…], time 7 day): 82.4%
- MCH ([…], time 7 day): 21.5 pg
- MCHC ([…], time 7 day): 34.1%
- MCV ([…], time 7 day): 63.2 fL
- Mono ([…], time 7 day): 8.4%
- Neu ([…], time 7 day): 9%
- PT ([…], time 7 day): 12.9 s
- Plat ([…], time 7 day): 122.5 x10_4/uL
- RBC ([…], time 7 day): 638 x10_4/ul
- Ret ([…], time 7 day): 3.7%
- WBC ([…], time 7 day): 123.8 x10_2/uL
- APTT ([…], time 14 day): 16.6 s
- Bas ([…], time 14 day): 0%
- Eos ([…], time 14 day): 0.2%
- Fbg ([…], time 14 day): 204.2 mg/dL
- Hb ([…], time 14 day): 14.8 g/dL
- Ht ([…], time 14 day): 43.8%
- Lym ([…], time 14 day): 86.2%
- MCH ([…], time 14 day): 21 pg
- MCHC ([…], time 14 day): 33.7%
- MCV ([…], time 14 day): 62.2 fL
- Mono ([…], time 14 day): 3.6%
- Neu ([…], time 14 day): 10%
- PT ([…], time 14 day): 13.8 s
- Plat ([…], time 14 day): 89 x10_4/uL
- RBC ([…], time 14 day): 705.4 x10_4/ul
- Ret ([…], time 14 day): 1.5%
- WBC ([…], time 14 day): 134 x10_2/uL
- APTT ([…], time 28 day): 15.1 s
- Bas ([…], time 28 day): 0%
- Eos ([…], time 28 day): 1%
- Fbg ([…], time 28 day): 171 mg/dL
- Hb ([…], time 28 day): 15.8 g/dL
- Ht ([…], time 28 day): 46.9%
